In general, IC50 refers to the concentration that gives 50% inhibition.

The results in this text go back to patent US10233180B2, “Substituted nitrogen-containing heterocyclic derivatives, pharmaceutical compositions comprising the same and applications of antitumor thereof” (ZHEJIANG UNIVERSITY, priority 2014, dated 2019).

One experiment concerns the target T1, Akt1 (Homo sapiens, UniProt P31749).
T1 construct: purchased 32-021
Kind of experiment: AKT1/PKBα KinEASE FP Fluorescein Green Assay (fluorescence polarization kinase kit). As to conditions: 1 h reaction, read-out: Inhibitory activities against Akt1 (IC50). It is filed as biochemical. The procedure, abridged:
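FP competition kinase assay: compounds (50 μM stock) with STK Substrate 3 and ATP, 1 h reaction at room temperature; stopped with stop/antibody mix, 4 h at room temperature, then polarization read. Inhibition derived from polarization values; IC50 calculated; triplicate wells.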
In general terms: Fluorescence polarisation rises when a labelled molecule tumbles more slowly, as on binding a larger partner.

In experiment [1] the test system is human colon cancer cell strain HCT-116. Kind of experiment: MTT assay, inhibition of tumor cell growth in vitro, 72 h. It is filed as cell-based. To be noted: Homo sapiens, HCT-116, MTT, read-out: Antitumor proliferative activities of tumor cell (IC50, μM) HCT-116 (converted). Summed up:
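Cells in RPMI 1640 with FBS, 4000 cells/well, exposed 72 h at 37 °C, 5% CO2 to final 50, 10, 2, 0.4 and 0.08 μM; 1% DMSO blank. MTT OD gives % inhibition versus control; IC50 derived by Bliss method.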
For orientation: Tetrazolium assays rely on reduction of a dye to a coloured formazan, in cell work by metabolically active cells.

Experiment [2] concerns Human ovarian cancer cell strain OVCAR-8. Described as above. In kind it is cell-based. To be noted: Homo sapiens, OVCAR-8, MTT, read-out: Antitumor proliferative activities of tumor cell (IC50, μM) OVCAR-8. The procedure, abridged: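 OVCAR8 cells in RPMI 1640 plus FBS were seeded at 4000 cells/well and exposed for 72 h at 37 °C to compound at 50, 10, 2, 0.4 and 0.08 μM final, with 1% DMSO as blank. Inhibition was calculated from OD relative to control, and IC50 was derived by the Bliss method.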

T1 sequence (P31749 whole entry): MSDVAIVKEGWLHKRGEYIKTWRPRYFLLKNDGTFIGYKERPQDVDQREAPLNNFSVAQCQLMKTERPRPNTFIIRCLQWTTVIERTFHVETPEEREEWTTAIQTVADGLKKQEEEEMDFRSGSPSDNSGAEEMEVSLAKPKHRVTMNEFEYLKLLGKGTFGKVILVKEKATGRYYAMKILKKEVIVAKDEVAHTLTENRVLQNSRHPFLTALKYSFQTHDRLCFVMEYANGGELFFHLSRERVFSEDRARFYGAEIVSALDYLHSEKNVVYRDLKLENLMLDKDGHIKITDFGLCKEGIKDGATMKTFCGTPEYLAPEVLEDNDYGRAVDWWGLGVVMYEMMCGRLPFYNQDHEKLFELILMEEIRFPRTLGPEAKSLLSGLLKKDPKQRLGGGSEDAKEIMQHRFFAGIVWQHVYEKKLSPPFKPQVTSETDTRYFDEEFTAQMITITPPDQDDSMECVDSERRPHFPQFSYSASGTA

As for `CNC(=O)CC1C[C@@H](c2ccc(F)c(F)c2)[C@H](NC(=O)c2cc(-c3c(Cl)cnn3C)cs2)CN1` (stereo partly drawn) [Compound 133, 4-(4-chloro-1-methyl-1H-pyrazol-5-yl)-N-((3S,4S)-4-(3,4-difluorophenyl)-6-(2-(methylamido)-2-oxyethyl)piperidin-3-yl)thiophene-2-formamide], the IC50 on Akt1 was 0.003 µM; in experiment [1] it was 0.42 µM; in experiment [2], 5.79 µM.

With `Cn1ncc(Cl)c1-c1ccc(C(=O)N[C@@H]2CNCC[C@H]2c2cccc(F)c2)cc1OC(F)(F)F` [Compound 85, 4-(4-chloro-1-methyl-1H-pyrazol-5-yl)-N-((3S,4S)-4-(3-fluorophenyl)piperidin-3-yl)-3-(trifluoromethoxy)benzamide], the IC50 was 0.021 µM at Akt1, 5.56 µM in experiment [1] and 3.07 µM in experiment [2].

On to `Cn1ncnc1-c1cc(C(=O)N[C@H]2CNCC[C@@H]2c2ccc(C(F)(F)F)cc2)oc1Br` (racemic) [Compound 3, 5-bromo-4-(1-methyl-1H-1,2,4-triazol-5-yl)-N-(3,4-trans-4-(4-trifluoromethylphenyl)piperidin-3-yl)furan-2-formamide], for which the results for the IC50 (on Akt1; in experiment [1]; in experiment [2]) were 0.043 µM, 8.9 µM and 13 µM, respectively.

In the case of `Cn1ncc(Br)c1-c1ccc(C(=O)N[C@@H]2CNCC[C@H]2c2cc(F)c(F)c(F)c2)cc1` [Compound 81, 4-(4-bromo-1-methyl-1H-pyrazol-5-yl)-N-((3S,4S)-4-(3,4,5-trifluorophenyl)piperidin-3-yl)benzamide], the 50% inhibitory concentration (IC50) on Akt1 is 0.018 µM; in experiment [1] it was 1.1 µM; in experiment [2], 3.57 µM.

For the compound `C[C@H]1CNC[C@@H](NC(=O)c2cc(-c3c(Cl)cnn3C)c(Cl)s2)[C@@H]1c1cccc(F)c1` [Compound 135, 5-chloro-4-(4-chloro-1-methyl-1H-pyrazol-5-yl)-N-((3S, 4S, 5R)-4-(3-fluorophenyl)-5-methylpiperidin-3-yl)thiophene-2-formamide], the IC50 is 0.012 µM on Akt1, 0.8 µM in experiment [1] and 1.2 µM in experiment [2].

With `Cc1cnn(C)c1-c1cnc(C(=O)N[C@H]2CNCC[C@@H]2c2ccc(F)c(F)c2)cc1F` (racemic) [Compound 46, 4-fluoro-5-(1,4-dimethyl-1H-pyrazol-5-yl)-N-(3,4-trans-4-(3,4-difluorophenyl)piperidin-3-yl)pyridinyl-2-formamide], the IC50 is 0.348 µM on Akt1, 23.8 µM in experiment [1] and 7.94 µM in experiment [2].

`C=CCC1C[C@@H](c2ccc(Cl)c(Cl)c2)[C@H](NC(=O)c2cc(-c3c(Cl)cnn3C)c(Cl)o2)CN1` (stereo partly drawn) [Compound 106, N-((3S,4S)-6-allyl-4-(3,4-dichlorophenyl)piperidin-3-yl)-5-chloro-4-(4-chloro-1-methyl-1H-pyrazol-5-yl)furan-2-formamide]: the IC50 was 0.002 µM on Akt1, 2.51 µM in experiment [1] and 1.02 µM in experiment [2].

`Cc1sc(C(=O)N[C@H]2CNCC[C@@H]2c2ccc(F)c(F)c2)cc1-c1c(Cl)cnn1C` (racemic) [Compound 5, 5-methyl-4-(4-chloro-1-methyl-1H-pyrazol-5-yl)-N-(3,4-trans-4-(3,4-difluorophenyl)piperidin-3-yl)thiophene-2-formamide]: the IC50 on Akt1 is 0.121 µM; in experiment [1] it was 6.8 µM; in experiment [2], 14.3 µM.

Turning to `Cn1ncc(Br)c1-c1coc(C(=O)N[C@H]2CNCC[C@@H]2c2ccc(Cl)cc2)c1` (racemic) [Compound 26, 4-(4-bromo-1-methyl-1H-pyrazol-5-yl)-N-(3,4-trans-4-(4-chlorphenyl)piperidin-3-yl)furan-2-formamide], the IC50 is 0.034 µM on Akt1, 2.16 µM in experiment [1] and 4.89 µM in experiment [2].

Regarding `Cn1ncc(Cl)c1-c1cc(C(=O)N[C@@H]2CNC(CCN3CCC(O)CC3)C[C@H]2c2ccc(Cl)c(Cl)c2)oc1Cl` (stereo partly drawn) [Compound 114, 5-chloro-4-(4-chloro-1-methyl-1H-pyrazol-5-yl)-N-((3S,4S)-4-(3,4-dichlorophenyl)-6-(2-(4-hydroxylpiperidin-1-yl)ethyl)piperidin-3-yl)furan-2-formamide], the IC50 at Akt1 is 0.014 µM; in experiment [1] it was 1.1 µM; in experiment [2], 1.56 µM.

On to `Cc1[nH]c(C(=O)N[C@H]2CNCC[C@@H]2c2cccc(C#N)c2)cc1-c1c(Br)cnn1C` (racemic) [Compound 10, 5-methyl-4-(1-methyl-4-bromo-1H-pyrazol-5-yl)-N-(3,4-trans-4-(3-cyanophenyl)piperidin-3-yl)-1H-pyrrole-2-formamide], for which the IC50 at Akt1 is 0.026 µM; in experiment [1] it was 3.31 µM; in experiment [2], 6.57 µM.

As for `Cc1nc(C(=O)N[C@H]2CNCC[C@@H]2C2CCCNC2)ccc1-c1c(Br)cnn1C` (mixture of isomers) [Compound 59, 6-methyl-5-(4-bromo-1-methyl-1H-pyrazol-5-yl)-N-(3,4-trans-4-(piperidin-3-yl)piperidin-3-yl)pyridinyl-2-formamide], the IC50 on Akt1 was 0.142 µM; in experiment [1], 8.33 µM; in experiment [2], 7.88 µM.

On to `CCc1cnn(C)c1-c1ccc(C(=O)N[C@@H]2CNCC[C@H]2c2cccc(F)c2)s1` [Compound 145, 5-(4-ethyl-1-methyl-1H-pyrazol-5-yl)-N-((3S, 4S)-4-(3-fluorophenyl)piperidin-3-yl)thiophene-2-formamide], for which the IC50 on Akt1 is 0.004 µM; in experiment [1], 1.47 µM; in experiment [2], 1.06 µM.

Consider `Cn1ncc(Cl)c1-c1cc(C(=O)N[C@@H]2CNC(CCNS(C)(=O)=O)C[C@H]2c2ccc(F)c(F)c2)oc1Cl` (stereo partly drawn) [Compound 127, 5-chloro-4-(4-chloro-1-methyl-1H-pyrazol-5-yl)-N-((3S,4S)-4-(3,4-difluorophenyl)-6-(2-(methylsulfonamido)ethyl)piperidin-3-yl)furan-2-formamide], for which the IC50 on Akt1 was 0.0003 µM; in experiment [1] it was 0.89 µM; in experiment [2] it was 0.67 µM.

Regarding `Cn1ncc(Cl)c1-c1cc(C(=O)N[C@@H]2CNC(CC(=O)NC3CC3)C[C@H]2c2ccc(Cl)c(Cl)c2)oc1Cl` (stereo partly drawn) [Compound 119, 5-chloro-4-(4-chloro-1-methyl-1H-pyrazol-5-yl)-N-((3S,4S)-6-(2-(cyclopropylamido)-2-oxoethyl)-4-(3,4-dichlorophenyl)piperidin-3-yl)furan-2-formamide], the results for the IC50 (at Akt1; in experiment [1]; in experiment [2]) were 0.004 µM, 1.47 µM and 0.65 µM, respectively.

With `Cn1ncc(Cl)c1-c1ccc(C(=O)N[C@@H]2CNCC[C@H]2c2cccc(F)c2)cc1Cl` [Compound 86, 3-chloro-4-(4-chloro-1-methyl-1H-pyrazol-5-yl)-N-((3S,4S)-4-(3-fluorophenyl)piperidin-3-yl)benzamide], the IC50 was 0.014 µM at Akt1, 1.47 µM in experiment [1] and 1.26 µM in experiment [2].

As for `Cn1ncc(Cl)c1-c1coc(C(=O)N[C@H]2CNCC[C@@H]2c2ccc(Cl)cc2)c1` (racemic) [Compound 23, 4-(4-chloro-1-methyl-1H-pyrazol-5-yl)-N-(3,4-trans-4-(4-chlorphenyl)piperidin-3-yl)furan-2-formamide], the IC50 at Akt1 was 0.045 µM; in experiment [1], 3.78 µM; in experiment [2], 1.22 µM.
